Experimental data: patent US20220380320A1 (priority 2019, published 2022)

Columns and labels:
[1] = test system: vero cells (ATCC CCL-81)
[2] = test system: MERS-CoV; test: microbe, parasite or virus in culture; type: cell-based; settings: for EC50: Middle East respiratory syndrome-related coronavirus, Vero, 24 h
[3] = in vitro; settings: African green monkey

SMILES	toxicity to host cells [1]	SI [2]	EC50 [2]	CC50 [3]
Cc1cccc(C)c1OCC(=O)N[C@@H](Cc1ccccc1)[C@@H](O)C[C@H](Cc1ccccc1)NC(=O)[C@H](Cc1ccccc1)N1CCCNC1=O [Compound 1, (S)-N-((2S,4S,5S)-5-(2-(2,6-dimethylphenoxy)acetamido)-4-hydroxy-1,6-diphenylhexane-2-yl)-2-(2-oxotetrahydropyrimidin-1(2H)-yl)-3-phenylpropanamide]	minimal toxicity	21.74	2030 nM	> 50 µM
Cc1cccc(C)c1OCC(=O)N[C@@H](Cc1ccccc1)[C@@H](O)C[C@H](Cc1ccccc1)NC(=O)[C@](C)(C(C)C)N1CCCNC1=O [Compound 2, (S)-N-((2S,4S,5S)-5-(2-(2,6-dimethylphenoxy)acetamido)-4-hydroxy-1,6-diphenylhexane-2-yl)-2,3-dimethyl-2-(2-oxotetrahydropyrimidin-1(2H)-yl)butanamide]	minimal toxicity	–	–	> 50 µM
Cc1cccc(C)c1OCC(=O)N[C@@H](Cc1ccccc1)[C@@H](O)C[C@H](Cc1ccccc1)NC(=O)[C@@](C)(C(C)C)N1CCCNC1=O [Compound 3, (R)-N-((2S,4S,5S)-5-(2-(2,6-dimethylphenoxy)acetamido)-4-hydroxy-1,6-diphenylhexane-2-yl)-2,3-dimethyl-2-(2-oxotetrahydropyrimidin-1(2H)-yl)butanamide]	minimal toxicity	–	–	> 50 µM
Cc1cccc(C)c1OCC(=O)N[C@@H](Cc1ccccc1)[C@@H](O)C[C@H](Cc1ccccc1)NC(=O)C1(N2CCCNC2=O)CCCC1 [Compound 4, N-((2S,4S,5S)-5-(2-(2,6-dimethylphenoxy)acetamido)-4-hydroxy-1,6-diphenylhexan-2-yl)-1-(2-oxotetrahydropyrimidine-1 (2H)-yl) cyclopentanecarboxamide]	minimal toxicity	6.53	7660 nM	> 50 µM
Cc1cccc(C[C@@H](C(=O)N[C@@H](Cc2ccccc2)C[C@H](O)[C@H](Cc2ccccc2)NC(=O)COc2c(C)cccc2C)N2CCCNC2=O)c1 [Compound 5, (S)-N-((2S,4S,5S)-5-(2-(2,6-dimethylphenoxy)acetamido)-4-hydroxy-1,6-diphenylhexane-2-yl)-2-(2-oxotetrahydropyrimidin-1(2H)-yl)-3-(m-tolyl)propanamide]	minimal toxicity	17.91	2790 nM	> 50 µM
Cc1cccc(C)c1OCC(=O)N[C@@H](Cc1ccccc1)[C@@H](O)C[C@H](Cc1ccccc1)NC(=O)[C@H](Cc1ccc(F)cc1)N1CCCNC1=O [Compound 7, (S)-N-((2S,4S,5S)-5-(2-(2,6-dimethylphenoxy)acetamido)-4-hydroxy-1,6-diphenylhexane-2-yl)-3-(4-fluorophenyl)-2-(2-oxotetrahydropyrimidin-1(2H)-yl)propanamide]	minimal toxicity	23.96	2090 nM	> 50 µM
Cc1cccc(C)c1OCC(=O)N[C@@H](Cc1ccccc1)[C@@H](O)C[C@H](Cc1ccccc1)NC(=O)[C@H](Cc1ccc(C(F)(F)F)cc1)N1CCCNC1=O [Compound 8, (S)-N-((2S,4S,5S)-5-(2-(2,6-dimethylphenoxy)acetamido)-4-hydroxy-1,6-diphenylhexane-2-yl)-2-(2-oxotetrahydropyrimidin-1(2H)-yl)-3-(4-(trifluoromethyl)phenyl)propanamide]	minimal toxicity	40.88	1220 nM	> 50 µM
Cc1cccc(C)c1OCC(=O)N[C@@H](Cc1ccccc1)[C@@H](O)C[C@H](Cc1ccccc1)NC(=O)[C@H](Cc1ccc(C#N)cc1)N1CCCNC1=O [Compound 9, (S)-3-(4-cyanophenyl)-N-((2S,4S,5S)-5-(2-(2,6-dimethylphenoxy)acetamido)-4-hydroxy-1,6-diphenylhexan-2-yl)-2-(2-oxotetrahydropyrimidin-1(2H)-yl)propanamide]	minimal toxicity	19.33	2590 nM	> 50 µM
Cc1cccc(C)c1OCC(=O)N[C@@H](Cc1ccccc1)[C@@H](O)C[C@H](Cc1ccccc1)NC(=O)[C@H](Cc1cccs1)N1CCCNC1=O [Compound 10, (S)-N-((2S,4S,5S)-5-(2-(2,6-dimethylphenoxy)acetamido)-4-hydroxy-1,6-diphenylhexane-2-yl)-2-(2-oxotetrahydropyrimidin-1(2H)-yl)-3-(thiophen-2-yl)propenamide]	minimal toxicity	15.06	3320 nM	> 50 µM
Cc1cccc(C)c1OCC(=O)N[C@@H](Cc1ccccc1)[C@@H](O)C[C@H](Cc1ccccc1)NC(=O)[C@H](C(C)C)N1CCCNC1=O [Positive control, Lopinavir, reference compound]	–	4.78	10500 nM	> 50 µM
